ChEMBL document CHEMBL5291721, “A preclinical secondary pharmacology resource illuminates target-adverse drug reaction associations of marketed drugs” (Nat Commun, 2023)

Legend:
[1] = target: Voltage-gated inwardly rectifying potassium channel KCNH2 (Homo sapiens, UniProt Q12809); format: functional; settings: read-out: AC50
Cannabinoid receptor 1 = Cannabinoid receptor 1 (Homo sapiens, UniProt P21554); format: functional, cell-based
[2] = target: T1, Muscarinic acetylcholine receptor M1 (Homo sapiens, UniProt P11229); format: functional
T1 sequence (P11229 whole entry): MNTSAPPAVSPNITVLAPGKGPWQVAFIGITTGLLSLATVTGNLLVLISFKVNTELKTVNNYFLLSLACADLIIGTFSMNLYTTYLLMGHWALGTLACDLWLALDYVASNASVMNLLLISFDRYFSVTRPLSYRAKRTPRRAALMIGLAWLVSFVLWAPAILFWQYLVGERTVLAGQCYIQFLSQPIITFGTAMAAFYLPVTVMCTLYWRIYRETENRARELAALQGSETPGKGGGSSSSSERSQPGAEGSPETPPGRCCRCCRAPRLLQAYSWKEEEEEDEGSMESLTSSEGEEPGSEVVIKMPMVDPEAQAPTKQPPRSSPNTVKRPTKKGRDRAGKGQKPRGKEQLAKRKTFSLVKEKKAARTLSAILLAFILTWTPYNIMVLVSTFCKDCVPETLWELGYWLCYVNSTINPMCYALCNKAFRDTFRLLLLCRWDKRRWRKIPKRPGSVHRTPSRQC

Vasopressin V2 receptor = Vasopressin V2 receptor (Homo sapiens, UniProt P30518)
Chain of Vasopressin V2 receptor (P30518 whole entry): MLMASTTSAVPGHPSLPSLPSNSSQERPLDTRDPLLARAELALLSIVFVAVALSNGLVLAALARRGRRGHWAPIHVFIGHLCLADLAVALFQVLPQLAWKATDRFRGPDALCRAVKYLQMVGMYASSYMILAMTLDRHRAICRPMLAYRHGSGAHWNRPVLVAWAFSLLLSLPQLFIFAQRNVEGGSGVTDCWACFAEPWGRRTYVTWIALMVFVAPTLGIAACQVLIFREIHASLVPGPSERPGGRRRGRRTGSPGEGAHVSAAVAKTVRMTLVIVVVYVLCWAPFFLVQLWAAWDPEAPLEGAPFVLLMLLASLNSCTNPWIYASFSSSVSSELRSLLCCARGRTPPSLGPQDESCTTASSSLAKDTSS

Progesterone receptor = target: T2, Progesterone receptor (Homo sapiens, UniProt P06401); format: functional
T2 sequence (P06401 whole entry): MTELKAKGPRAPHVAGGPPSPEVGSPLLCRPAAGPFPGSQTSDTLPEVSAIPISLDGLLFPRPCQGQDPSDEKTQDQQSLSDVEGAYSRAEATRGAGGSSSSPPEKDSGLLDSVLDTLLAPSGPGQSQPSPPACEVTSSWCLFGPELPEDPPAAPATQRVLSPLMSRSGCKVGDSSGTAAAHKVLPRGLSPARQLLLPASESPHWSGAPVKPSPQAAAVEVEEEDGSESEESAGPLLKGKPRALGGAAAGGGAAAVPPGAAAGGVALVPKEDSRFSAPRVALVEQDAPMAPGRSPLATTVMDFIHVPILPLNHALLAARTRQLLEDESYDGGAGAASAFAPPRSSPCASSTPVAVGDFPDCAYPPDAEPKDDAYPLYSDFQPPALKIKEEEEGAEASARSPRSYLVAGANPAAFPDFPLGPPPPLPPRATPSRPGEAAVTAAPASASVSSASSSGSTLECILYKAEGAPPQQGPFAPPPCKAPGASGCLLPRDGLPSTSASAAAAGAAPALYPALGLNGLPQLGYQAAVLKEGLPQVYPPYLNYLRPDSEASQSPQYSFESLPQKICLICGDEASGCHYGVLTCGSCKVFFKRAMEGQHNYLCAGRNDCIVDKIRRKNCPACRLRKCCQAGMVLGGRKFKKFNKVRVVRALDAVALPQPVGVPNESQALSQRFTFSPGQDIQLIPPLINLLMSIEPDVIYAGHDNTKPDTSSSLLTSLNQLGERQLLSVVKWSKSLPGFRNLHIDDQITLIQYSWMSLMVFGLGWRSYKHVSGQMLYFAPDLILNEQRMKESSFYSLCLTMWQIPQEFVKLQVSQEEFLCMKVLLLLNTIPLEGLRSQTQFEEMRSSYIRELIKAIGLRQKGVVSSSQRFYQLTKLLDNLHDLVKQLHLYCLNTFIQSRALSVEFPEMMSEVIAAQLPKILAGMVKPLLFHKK

[3] = target: T3, Alpha-2B adrenergic receptor (Homo sapiens, UniProt P18089)
T3 sequence (P18089 whole entry): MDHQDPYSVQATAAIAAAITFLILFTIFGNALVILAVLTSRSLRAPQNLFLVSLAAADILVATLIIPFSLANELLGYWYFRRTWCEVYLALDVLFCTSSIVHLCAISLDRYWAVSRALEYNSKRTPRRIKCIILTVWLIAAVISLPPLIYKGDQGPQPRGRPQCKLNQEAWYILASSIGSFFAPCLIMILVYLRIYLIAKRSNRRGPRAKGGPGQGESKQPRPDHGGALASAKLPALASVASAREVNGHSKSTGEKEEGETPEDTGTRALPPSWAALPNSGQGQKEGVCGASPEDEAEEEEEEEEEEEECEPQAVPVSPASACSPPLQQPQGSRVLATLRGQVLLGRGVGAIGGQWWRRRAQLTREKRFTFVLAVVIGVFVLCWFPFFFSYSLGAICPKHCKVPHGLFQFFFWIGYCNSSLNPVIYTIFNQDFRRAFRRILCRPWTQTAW

[4] = target: Gamma-aminobutyric acid receptor subunit alpha-1 (Rattus norvegicus, UniProt P62813)
Chain of Gamma-aminobutyric acid receptor subunit alpha-1 (P62813 whole entry): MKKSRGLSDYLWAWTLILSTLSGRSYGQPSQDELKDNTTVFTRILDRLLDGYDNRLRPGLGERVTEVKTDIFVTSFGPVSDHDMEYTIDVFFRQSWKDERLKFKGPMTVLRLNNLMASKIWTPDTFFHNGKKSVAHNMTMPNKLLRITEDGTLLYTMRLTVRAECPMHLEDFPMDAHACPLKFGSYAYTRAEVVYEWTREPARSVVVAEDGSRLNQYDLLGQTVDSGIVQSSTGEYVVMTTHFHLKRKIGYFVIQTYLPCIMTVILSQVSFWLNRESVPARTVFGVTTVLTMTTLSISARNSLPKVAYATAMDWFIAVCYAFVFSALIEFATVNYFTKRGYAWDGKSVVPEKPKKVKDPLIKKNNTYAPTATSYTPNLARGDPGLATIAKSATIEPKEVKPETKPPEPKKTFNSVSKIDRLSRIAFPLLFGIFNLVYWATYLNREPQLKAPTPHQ

[5] = target: Kappa-type opioid receptor (Homo sapiens, UniProt P41145)
Chain of Kappa-type opioid receptor (P41145 whole entry): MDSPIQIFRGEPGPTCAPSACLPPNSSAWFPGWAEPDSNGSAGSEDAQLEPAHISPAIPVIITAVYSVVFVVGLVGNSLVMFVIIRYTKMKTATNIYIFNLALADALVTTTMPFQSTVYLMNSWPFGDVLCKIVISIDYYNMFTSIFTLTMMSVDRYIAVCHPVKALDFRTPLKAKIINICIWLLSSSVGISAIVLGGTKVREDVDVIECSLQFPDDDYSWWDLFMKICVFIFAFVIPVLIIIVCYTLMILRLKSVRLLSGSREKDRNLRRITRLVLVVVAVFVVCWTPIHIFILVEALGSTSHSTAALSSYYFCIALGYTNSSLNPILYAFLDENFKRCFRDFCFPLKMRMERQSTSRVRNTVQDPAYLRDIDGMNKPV

[6] = target: T4, Alpha-2A adrenergic receptor (Homo sapiens, UniProt P08913); format: functional, cell-based
T4 sequence (P08913 whole entry): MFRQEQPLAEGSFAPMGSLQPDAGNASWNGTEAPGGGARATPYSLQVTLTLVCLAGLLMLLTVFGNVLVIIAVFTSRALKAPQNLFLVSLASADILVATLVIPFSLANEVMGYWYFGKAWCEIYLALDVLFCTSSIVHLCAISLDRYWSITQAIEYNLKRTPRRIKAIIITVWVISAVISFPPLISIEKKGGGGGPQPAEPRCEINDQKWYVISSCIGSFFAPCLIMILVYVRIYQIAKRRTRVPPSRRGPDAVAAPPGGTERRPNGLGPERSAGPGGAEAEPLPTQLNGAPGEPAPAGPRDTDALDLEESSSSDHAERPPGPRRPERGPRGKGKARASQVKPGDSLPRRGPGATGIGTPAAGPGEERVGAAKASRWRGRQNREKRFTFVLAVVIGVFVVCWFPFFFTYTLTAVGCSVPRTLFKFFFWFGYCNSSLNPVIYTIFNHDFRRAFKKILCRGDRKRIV

Thromboxane A2 receptor = target: T5, Thromboxane A2 receptor (Homo sapiens, UniProt P21731)
T5 sequence (P21731 whole entry): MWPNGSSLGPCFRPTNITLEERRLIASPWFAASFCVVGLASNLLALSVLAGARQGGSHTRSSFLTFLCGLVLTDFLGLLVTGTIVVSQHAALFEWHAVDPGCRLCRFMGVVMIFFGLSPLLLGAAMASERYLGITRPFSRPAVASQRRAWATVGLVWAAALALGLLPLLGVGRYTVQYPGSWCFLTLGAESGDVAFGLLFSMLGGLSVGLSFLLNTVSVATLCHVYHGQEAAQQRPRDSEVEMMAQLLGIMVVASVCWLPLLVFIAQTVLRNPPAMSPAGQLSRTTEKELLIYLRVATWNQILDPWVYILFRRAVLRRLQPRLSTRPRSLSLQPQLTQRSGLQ
Note: assay procedure not described here.

Chain of Cannabinoid receptor 1 (P21554 whole entry): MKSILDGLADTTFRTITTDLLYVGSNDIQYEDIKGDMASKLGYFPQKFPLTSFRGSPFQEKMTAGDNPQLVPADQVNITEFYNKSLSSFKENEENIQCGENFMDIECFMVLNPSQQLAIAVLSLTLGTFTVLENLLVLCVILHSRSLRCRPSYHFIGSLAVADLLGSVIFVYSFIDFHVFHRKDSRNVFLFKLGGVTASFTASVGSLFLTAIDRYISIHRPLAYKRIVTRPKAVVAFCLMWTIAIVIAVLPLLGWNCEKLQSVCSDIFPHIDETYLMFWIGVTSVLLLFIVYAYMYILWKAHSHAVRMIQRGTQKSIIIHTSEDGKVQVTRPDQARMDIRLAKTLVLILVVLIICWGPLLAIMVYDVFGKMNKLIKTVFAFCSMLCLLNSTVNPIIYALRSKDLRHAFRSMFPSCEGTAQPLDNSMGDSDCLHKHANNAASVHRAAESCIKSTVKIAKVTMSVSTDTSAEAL
Chain of Voltage-gated inwardly rectifying potassium channel KCNH2 (Q12809 whole entry): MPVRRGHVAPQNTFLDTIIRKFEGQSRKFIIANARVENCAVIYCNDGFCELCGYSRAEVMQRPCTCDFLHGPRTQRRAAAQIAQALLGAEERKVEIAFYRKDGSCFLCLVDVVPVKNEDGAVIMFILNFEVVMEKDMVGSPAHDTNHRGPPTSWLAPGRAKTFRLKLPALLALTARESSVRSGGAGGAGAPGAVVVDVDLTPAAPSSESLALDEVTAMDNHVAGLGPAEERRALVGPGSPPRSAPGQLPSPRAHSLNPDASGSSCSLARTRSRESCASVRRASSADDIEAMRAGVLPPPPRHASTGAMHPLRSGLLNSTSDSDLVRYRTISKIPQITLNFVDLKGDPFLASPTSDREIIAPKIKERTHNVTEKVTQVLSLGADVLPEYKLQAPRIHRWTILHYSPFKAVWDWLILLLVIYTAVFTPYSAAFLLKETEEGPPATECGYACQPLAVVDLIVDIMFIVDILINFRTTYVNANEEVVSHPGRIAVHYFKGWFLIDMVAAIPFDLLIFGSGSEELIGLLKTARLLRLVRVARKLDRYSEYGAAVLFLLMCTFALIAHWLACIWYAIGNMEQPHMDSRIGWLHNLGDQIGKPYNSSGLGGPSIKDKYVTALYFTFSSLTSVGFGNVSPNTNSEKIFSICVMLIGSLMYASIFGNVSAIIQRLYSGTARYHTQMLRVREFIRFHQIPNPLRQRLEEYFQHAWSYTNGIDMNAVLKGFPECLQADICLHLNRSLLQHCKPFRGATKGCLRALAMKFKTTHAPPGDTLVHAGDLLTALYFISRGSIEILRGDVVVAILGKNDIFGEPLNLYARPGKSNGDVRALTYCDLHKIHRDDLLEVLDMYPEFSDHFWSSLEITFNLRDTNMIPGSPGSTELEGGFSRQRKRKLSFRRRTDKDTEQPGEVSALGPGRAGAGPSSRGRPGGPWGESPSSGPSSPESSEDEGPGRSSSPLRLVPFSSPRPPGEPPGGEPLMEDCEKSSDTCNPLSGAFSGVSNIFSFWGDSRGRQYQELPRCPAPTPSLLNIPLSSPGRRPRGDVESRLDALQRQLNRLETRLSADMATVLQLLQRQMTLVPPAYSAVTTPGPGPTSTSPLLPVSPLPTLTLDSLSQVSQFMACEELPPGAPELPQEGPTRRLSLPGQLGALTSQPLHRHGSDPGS

Compound	AC50 [1] [µM]	AC50 (Cannabinoid receptor 1) [µM]	AC50 [2] [µM]	AC50 (Vasopressin V2 receptor) [µM]	AC50 (Progesterone receptor) [µM]	AC50 [3] [µM]	AC50 [4] [µM]	AC50 [5] [µM]	AC50 [6] [µM]	AC50 (Thromboxane A2 receptor) [µM]
COc1ccc(-n2nc(C(N)=O)c3c2C(=O)N(c2ccc(N4CCCCC4=O)cc2)CC3)cc1 [APIXABAN]	> 30	> 30	> 30	> 30	> 30	> 30	> 30	> 30	> 30	
CCN1C(=O)NC(c2ccccc2)C1=O (centres undefined) [ETHOTOIN]	> 30	> 30	> 30	> 30	> 30	> 30		> 30	> 30	
CO/N=C(\C(=O)N[C@@H]1C(=O)N2C(C(=O)[O-])=C(C[n+]3ccc(N)n3CCO)CS[C@H]12)c1csc(N)n1 [CEFOSELIS]	> 30	> 30	> 30	> 30	> 30	> 30	> 30	> 30	> 30	> 30
CC(=O)OCC1=C(C(=O)O)N2C(=O)[C@@H](NC(=O)Cc3cccs3)[C@H]2SC1 [CEPHALOTHIN]	> 30	> 30	> 30	> 30	> 30	> 30		> 30	> 30	
CCC(=O)O[C@H](CC(=O)O)C[N+](C)(C)C [LEVOCARNITINE PROPIONATE]	> 30	> 30	> 30	> 30	> 30	> 30	> 30	> 30	> 30	
O=C(O)c1nn(Cc2ccc(Cl)cc2Cl)c2ccccc12 [LONIDAMINE]	> 30	> 30	> 30	> 30	> 30	> 30		> 30	> 30	
CC1=C(C(=O)O)N2C(=O)[C@@H](NC(=O)[C@H](N)C3=CCC=CC3)[C@H]2SC1 [CEPHRADINE]	> 30	> 30	> 30	> 30	> 30	> 30		> 30	> 30	
CC(=O)Oc1cccc2c1C(=O)c1c(OC(C)=O)cc(C(=O)O)cc1C2=O [DIACEREIN]	> 30	> 30	19	> 30	> 30	> 30	> 30	> 30		> 30
CN(C)CCOCC(=O)NC12CC3CC(CC(C3)C1)C2 [TROMANTADINE]	> 30	> 30	> 30	> 30	> 30	> 30		11	> 30	> 30
COC(=O)c1ccc2c(c1)NC(=O)/C2=C(\Nc1ccc(N(C)C(=O)CN2CCN(C)CC2)cc1)c1ccccc1 [NINTEDANIB]	9.1	> 30	> 30	> 30	> 30	11	> 30	> 30	> 30	
O=C(O)c1ccc2nc(-c3cc(Cl)cc(Cl)c3)oc2c1	> 30		> 30	> 30	> 30	> 30	> 30	> 30	> 30	> 30
CS(=O)(=O)NC(=O)CCC/C=C\C[C@H]1C(=O)C[C@@H](O)[C@@H]1/C=C/[C@@H](O)COc1ccccc1 [SULPROSTONE]	> 30	> 30	> 30	> 30	> 30	> 30	> 30	> 30	> 30	
CCC1(CC)C(=O)NC(=O)N(C)C1=O [METHARBITAL]	> 30		> 10	> 10	> 10	> 10	> 10	> 10	> 10	> 10
OCC(O)COc1ccc(Cl)cc1 (centres undefined)	> 30		> 10	> 10	> 10	> 10	> 10	> 10	> 10	> 10
CCCCCCCC(=O)CC[C@@H]1[C@@H](C/C=C\CCCC(=O)O)[C@@H](O)C[C@H]1O [UNOPROSTONE]	> 30	> 30	> 30	> 30	> 30	> 30	> 30	> 30	> 30	
CC(=O)OCC1=C(C(=O)O)N2C(=O)[C@@H](NC(=O)CSc3ccncc3)[C@H]2SC1 [CEPHAPIRIN]	> 30		> 10	> 10	> 30	> 10	> 10	> 10	> 10	> 10
Nc1nc(Cl)nc2c1ncn2[C@@H]1O[C@H](CO)[C@@H](O)[C@@H]1F [CLOFARABINE]	> 30		> 30	> 30	> 30	> 30	> 10	> 10	> 10	> 30
CN(C)CCOC(=O)C(c1ccccc1)C1(O)CCCC1 (centres undefined) [CYCLOPENTOLATE]	> 30		0.069	> 10	> 10	> 10	> 10	> 10	> 10	> 10
